Reference: PubChem BioAssay (NCI)
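1) Cells in 96-well plates. 2) Compound, 48 h, 5 concentrations. 3) Linear interpolation between surrounding doses. 4) Unreached endpoint = highest concentration. GI50 is the concentration that inhibits growth by half. TGI denotes the concentration required for complete inhibition of growth.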

Experiments:
Assay in all cases: NCI-60 cell line screen, 48 h
HT29 colon = test system: HT29 colon
KM12 colon = test system: KM12 colon
786-0 renal = test system: 786-0 renal
TK-10 renal = test system: TK-10 renal
OVCAR-4 ovarian = test system: OVCAR-4 ovarian
HCT-116 colon = test system: HCT-116 colon
CAKI-1 renal = test system: CAKI-1 renal
NCI/ADR-RES ovarian = test system: NCI/ADR-RES ovarian
HCT-15 colon = test system: HCT-15 colon
SF-268 CNS = test system: SF-268 CNS

## Cc1ccc(C2C3Cc4ccccc4C3=NN2c2ccc(S(=O)(=O)NC(=O)Nc3ccccc3)cc2)cc1 (centres undefined)
HT29 colon
  GI50: 24.3 µM
  TGI: > 100 µM
KM12 colon
  GI50: 17.3 µM
  TGI: 43.2 µM
786-0 renal
  GI50: 12.8 µM
  TGI: 36.5 µM
TK-10 renal
  GI50: 16 µM
  TGI: 36.4 µM
OVCAR-4 ovarian
  GI50: 17.9 µM
  TGI: 50 µM
HCT-116 colon
  GI50: 3.4 µM
  TGI: 49.1 µM
CAKI-1 renal
  GI50: 14.6 µM
  TGI: 37.9 µM
NCI/ADR-RES ovarian
  GI50: 14.7 µM
  TGI: 38.8 µM
HCT-15 colon
  GI50: 14.8 µM
  TGI: 32.2 µM
SF-268 CNS
  GI50: 17.5 µM
  TGI: 55 µM

## O=c1[nH]c(=O)n(C2OC(CO)C(O)C2O)cc1F (centres undefined)
HT29 colon
  GI50: 0.0697 µM
  TGI: > 100 µM
KM12 colon
  GI50: 0.0267 µM
  TGI: 51.9 µM
786-0 renal
  GI50: 0.0462 µM
  TGI: 21.1 µM
TK-10 renal
  TGI: > 62.2 µM
OVCAR-4 ovarian
  TGI: 17.7 µM
HCT-116 colon
  GI50: 0.00778 µM
  TGI: 7.27 µM
CAKI-1 renal
  GI50: 0.0104 µM
  TGI: 18.1 µM
NCI/ADR-RES ovarian
  TGI: > 100 µM
HCT-15 colon
  GI50: 0.0207 µM
  TGI: > 72.5 µM
SF-268 CNS
  GI50: 0.0491 µM
  TGI: > 100 µM

## CCSCCCC(=O)O
HT29 colon
  TGI: > 100 µM
KM12 colon
  TGI: > 100 µM
786-0 renal
  TGI: > 100 µM
TK-10 renal
  TGI: > 100 µM
OVCAR-4 ovarian
  TGI: > 100 µM
HCT-116 colon
  TGI: > 100 µM
CAKI-1 renal
  TGI: > 100 µM
NCI/ADR-RES ovarian
  TGI: > 100 µM
HCT-15 colon
  TGI: > 100 µM
SF-268 CNS
  TGI: > 100 µM

## COc1ccc2c(c1)C(=O)c1c-2n(CCCCl)c(=O)c2cc(N)ccc12
HT29 colon
  GI50: > 100 µM
  TGI: > 100 µM
KM12 colon
  GI50: 29.3 µM
  TGI: > 100 µM
786-0 renal
  GI50: > 63.7 µM
  TGI: > 100 µM
TK-10 renal
  GI50: > 82.5 µM
  TGI: > 100 µM
OVCAR-4 ovarian
  GI50: > 96.7 µM
  TGI: > 100 µM
HCT-116 colon
  GI50: > 57.9 µM
  TGI: > 100 µM
CAKI-1 renal
  GI50: > 100 µM
  TGI: > 100 µM
NCI/ADR-RES ovarian
  GI50: > 100 µM
  TGI: > 100 µM
HCT-15 colon
  GI50: > 95.7 µM
  TGI: > 100 µM
SF-268 CNS
  GI50: > 75.4 µM
  TGI: > 100 µM

## Nc1ncnc2c1ncn2CCCCC(=O)O
HT29 colon
  TGI: > 100 µM
KM12 colon
  TGI: > 100 µM
786-0 renal
  TGI: > 100 µM
TK-10 renal
  TGI: > 100 µM
OVCAR-4 ovarian
  TGI: > 100 µM
HCT-116 colon
  TGI: > 100 µM
CAKI-1 renal
  TGI: > 100 µM
NCI/ADR-RES ovarian
  TGI: > 100 µM
HCT-15 colon
  TGI: > 100 µM
SF-268 CNS
  TGI: > 100 µM

## Cc1ccc(NC(=O)CCC(=O)C2Cc3ccccc3C2=O)cc1C (centres undefined)
HT29 colon
  TGI: > 100 µM
KM12 colon
  TGI: > 100 µM
786-0 renal
  TGI: > 100 µM
TK-10 renal
  TGI: > 100 µM
OVCAR-4 ovarian
  TGI: > 100 µM
HCT-116 colon
  TGI: > 100 µM
CAKI-1 renal
  TGI: > 100 µM
HCT-15 colon
  TGI: > 100 µM
SF-268 CNS
  TGI: > 100 µM

## Cc1cc(OCc2nn(CN3CCN(C)CC3)c(=S)n2/N=C/c2ccc(F)cc2)ccc1Cl
KM12 colon
  GI50: 17.9 µM
  TGI: 37.5 µM
786-0 renal
  GI50: 18.7 µM
  TGI: 34.1 µM
TK-10 renal
  GI50: 14.6 µM
  TGI: 33.7 µM
OVCAR-4 ovarian
  GI50: 6.86 µM
  TGI: 22 µM
HCT-116 colon
  GI50: 17.8 µM
  TGI: 32.3 µM
CAKI-1 renal
  GI50: 20.1 µM
  TGI: 40.9 µM
NCI/ADR-RES ovarian
  GI50: 18.8 µM
  TGI: 36.1 µM
HCT-15 colon
  GI50: 15.2 µM
  TGI: 29.3 µM
SF-268 CNS
  GI50: 19.6 µM
  TGI: 38 µM

## C1=C\CCCCN2CC[C@H]3[C@H](CCCC/C=C\CCCN4C[C@@H](CCCCC/1)C[C@@H]3C4)C2
HT29 colon
  GI50: 3.28 µM
  TGI: 12.9 µM
KM12 colon
  GI50: 9.05 µM
  TGI: 21.5 µM
786-0 renal
  GI50: 12.5 µM
  TGI: 25.9 µM
TK-10 renal
  GI50: 2.98 µM
  TGI: 12.4 µM
OVCAR-4 ovarian
  GI50: 8.84 µM
  TGI: 27.5 µM
HCT-116 colon
  GI50: 4.33 µM
  TGI: 20.8 µM
CAKI-1 renal
  GI50: 5.13 µM
  TGI: 14.1 µM
NCI/ADR-RES ovarian
  GI50: 13.8 µM
  TGI: 28.8 µM
HCT-15 colon
  GI50: 2.22 µM
  TGI: 7.77 µM
SF-268 CNS
  GI50: 13.6 µM
  TGI: 26.8 µM

## CCc1cccc(NC(=O)c2cc(/C=C/c3ccccc3)[nH]c(=S)n2)c1
HT29 colon
  TGI: > 100 µM
KM12 colon
  TGI: > 100 µM
786-0 renal
  TGI: > 100 µM
TK-10 renal
  TGI: > 100 µM
OVCAR-4 ovarian
  TGI: > 100 µM
HCT-116 colon
  TGI: > 100 µM
HCT-15 colon
  TGI: > 100 µM
SF-268 CNS
  TGI: > 100 µM

## CC[P+]1(c2ccccc2)CCCCC1
HT29 colon
  TGI: > 100 µM
KM12 colon
  TGI: > 100 µM
786-0 renal
  TGI: > 100 µM
TK-10 renal
  TGI: > 100 µM
OVCAR-4 ovarian
  TGI: > 100 µM
HCT-116 colon
  TGI: > 100 µM
CAKI-1 renal
  TGI: > 100 µM
HCT-15 colon
  TGI: > 100 µM
SF-268 CNS
  TGI: > 100 µM

## CCCCNCCCCCNc1cc(OC)cc2cccnc12
KM12 colon
  GI50: 39.3 µM
  TGI: > 100 µM
786-0 renal
  GI50: 14.6 µM
  TGI: 28.2 µM
TK-10 renal
  GI50: 23.4 µM
  TGI: 44.5 µM
OVCAR-4 ovarian
  GI50: 26.2 µM
  TGI: > 100 µM
HCT-116 colon
  GI50: 13.6 µM
  TGI: 26.6 µM
CAKI-1 renal
  GI50: 18.4 µM
  TGI: 37.7 µM
NCI/ADR-RES ovarian
  GI50: 17.2 µM
  TGI: 36.4 µM
HCT-15 colon
  GI50: 47.9 µM
  TGI: > 100 µM
SF-268 CNS
  GI50: > 100 µM
  TGI: > 100 µM

## CCN(CC)CCCC(C)Nc1ccnc(/C=C/c2ccc(Cl)cc2)c1 (centres undefined)
HT29 colon
  TGI: 6.44 µM
KM12 colon
  TGI: 7.39 µM
786-0 renal
  TGI: 3.45 µM
TK-10 renal
  TGI: 4.8 µM
HCT-116 colon
  TGI: 3.22 µM
CAKI-1 renal
  TGI: 4.11 µM
NCI/ADR-RES ovarian
  TGI: 15.3 µM
HCT-15 colon
  TGI: 6.35 µM
SF-268 CNS
  TGI: 8.6 µM

## O=C(Nc1cc2cc([N+](=O)[O-])ccc2oc1=O)c1cccs1
HT29 colon
  TGI: > 100 µM
KM12 colon
  TGI: 72.9 µM
786-0 renal
  TGI: > 100 µM
TK-10 renal
  TGI: > 100 µM
OVCAR-4 ovarian
  TGI: > 100 µM
HCT-116 colon
  TGI: > 100 µM
CAKI-1 renal
  TGI: > 100 µM
NCI/ADR-RES ovarian
  TGI: > 100 µM
SF-268 CNS
  TGI: > 100 µM

## C=C1C(C(=O)O)C1C(=O)O (centres undefined)
HT29 colon
  TGI: > 100 µM
KM12 colon
  TGI: > 100 µM
786-0 renal
  TGI: > 100 µM
TK-10 renal
  TGI: > 100 µM
OVCAR-4 ovarian
  TGI: > 100 µM
HCT-116 colon
  TGI: > 100 µM
CAKI-1 renal
  TGI: > 100 µM
HCT-15 colon
  TGI: > 100 µM
SF-268 CNS
  TGI: > 100 µM

## CC(C)(C)OC1=C(OC(C)(C)C)C(O)(c2ccc(Cl)cc2)C1=O (centres undefined)
HT29 colon
  TGI: > 100 µM
KM12 colon
  TGI: > 100 µM
786-0 renal
  TGI: > 100 µM
TK-10 renal
  TGI: > 100 µM
OVCAR-4 ovarian
  TGI: > 100 µM
HCT-15 colon
  TGI: > 100 µM
SF-268 CNS
  TGI: > 100 µM

## CC(=O)c1ccc(Oc2c3ccccc3nc3occc23)cc1
HT29 colon
  GI50: 7.13 µM
  TGI: > 100 µM
KM12 colon
  GI50: 9.12 µM
  TGI: > 100 µM
786-0 renal
  GI50: 33.3 µM
  TGI: > 100 µM
TK-10 renal
  GI50: 11.4 µM
  TGI: > 100 µM
OVCAR-4 ovarian
  GI50: 46.9 µM
  TGI: > 100 µM
HCT-116 colon
  GI50: 7.35 µM
  TGI: > 100 µM
NCI/ADR-RES ovarian
  GI50: 2.52 µM
  TGI: 9.81 µM
HCT-15 colon
  GI50: 2.39 µM
  TGI: 72.4 µM
SF-268 CNS
  GI50: 7.02 µM
  TGI: > 100 µM

## CCc1ccccc1NC(=O)C(=O)C(C#N)c1c(Cl)cccc1Cl (centres undefined)
HT29 colon
  TGI: > 100 µM
KM12 colon
  TGI: > 100 µM
786-0 renal
  TGI: > 100 µM
TK-10 renal
  TGI: > 100 µM
HCT-116 colon
  TGI: > 100 µM
CAKI-1 renal
  TGI: > 100 µM
HCT-15 colon
  TGI: > 100 µM
SF-268 CNS
  TGI: > 100 µM
